Like-named read-outs stand apart in the source and are kept apart here.
Experiments:
[1] = cytotoxicity assay (ATP-Lite cell viability); format: cell-based, human; settings: human, HOS cells, 48 hours, SD in parentheses
Method: (§1) One day prior to treatment, HOS cells were prepared in 96-well plates as described for the infectivity assays, except that 12 wells per plate were treated with cell-free media to serve as negative controls. The following day, serial dilutions of drug stocks were prepared in media from 10 mM stocks in DMSO. Each well received 11 μL of the appropriate drug concentration or DMSO-treated, drug-free media. Final drug concentrations ranged from 0.5 μM to 300 μM. The drug-free wells served as references. Plates were then incubated at 37°C for 48 hours. Cell viability was determined using luciferase reporter ATP-Lite kits (PerkinElmer). As described for the infectivity assays, drug-free reference wells were normalized to 100%, and viabilities at different drug concentrations were determined as a percentage of these references. Data were plotted and analyzed in the same manner as the IC50 data, with the inflection points of the curves reported as CC50.

HOS cells = assay: cytotoxicity assay (ATP-Lite cell viability); format: cell-based, human; settings: for Therapeutic Index (T.I.): ratio of CC50/EC50 (WT); for CC50: HOS cells, 48 hours, SD in parentheses
Method: as §1

[2] = system: viral vector with H221Y mutant HIV-1 RT; assay: single-round infectivity assay, luciferase reporter, H221Y RT vector; format: cell-based; settings: Human immunodeficiency virus 1; broader panel, SD in parentheses
Description: (§2) We examined the effects of rilpivirine and the analogues on HIV-1 replication using a previously described assay and report the concentrations at which luciferase reporter activity was reduced by half relative to uninhibited controls (EC50) with standard deviations in parentheses. In the assay, viral vectors that replicate using WT HIV reverse transcriptase or one of several mutants (L100I, K103N, V106A, E138K, Y181C, Y188L, H221Y and the double mutant K103N/Y181C) were used to infect cells in a single round assay. These mutants were chosen either because they are known NNRTI resistance mutations (L100I, K103N, Y181C, and the K103N/Y181C double mutant), they were selected in patients in rilpivirine clinical trials (E138K and H221Y), or they are positioned to make significant Van der Waals contacts with rilpivirine (V106A and Y188L). All compounds were initially screened against a panel that included at least one RT mutant from all three groups (WT, K103N, E138K, Y181C and Y188L). The cytotoxicity of the compounds was also determined to establish the therapeutic index of each of the compounds.
(§3) Procedures for virion production and cell-based assay have been reported. Briefly, all cell cultures were maintained in Dulbecco’s modified Eagle’s medium (Invitrogen, Carlsbad, CA) with 5% (v/v) fetal bovine serum, 5% newborn calf serum, penicillin (50 units/mL) and streptomycin (50 μg/mL) (Quality Biological, Gaithersburg, MD). […]. Transfected cells were incubated at 37°C for 8 hrs, washed twice with PBS, fresh media was added and the cells were returned to the incubator for 48 hrs. The pNLNgoMIVR^+ΔEnv.LUC plasmid encodes the HIV-1 genome with an Env deletion and either WT HIV-1 RT, or one of the following mutants: L100I, K103N, V106A, E138K, Y181C, Y188L, H221Y, or K103N/Y181C. Supernatants from each plate were clarified by low-speed centrifugation (3,000xg for 20 min), then treated with 200 U DNase I (Roche Applied Science, Mannheim, Germany) at room temperature for 3 hours. Viral supernatants were stored at −20°C until used.
(§4) One day prior to infection, 100 μL of human osteosarcoma (HOS) cells were added to each well of a 96-well plate at a density of 4x10^4 cells/mL. Plates were incubated overnight at 37°C. On the day of infection, 10X drug stocks were prepared by serial dilution in media from an initial 10 mM stock solution in DMSO. Cells in the 96-well plate were pre-treated by the addition of 22 μL of the appropriate drug stock and returned to the incubator for 3 hours. Thawed virus stocks were diluted 1:2 in media, then 100 μL of virus was added to the pre-treated cells, bringing the final drug concentrations to 0.1 nM to 100 nM, with DMSO-treated cells (no drug) serving as a reference. In addition, 12 wells of cells treated with media and no virus served as negative controls. Plates were returned to the incubator for an additional 42 hours, at which time the luciferase activity was determined using Steady-Lite Plus kits (PerkinElmer, Waltham, MA). Background luciferase activity, as measured for the negative controls, was subtracted from the activities measured for each infected well. Drug-free, DMSO-treated wells were normalized to 100% infectivity. Infectivity at each drug concentration was determined as a percentage of these drug-free infections. Drug concentration versus percent infectivity was plotted for each RT-inhibitor combination, and the data were fit to a four-parameter sigmoidal curve using KaleidaGraph 4.0 (Synergy Software, Reading, PA). The inflection point of each curve is reported as the IC50. All values are the mean of triplicate infections.

[3] = system: viral vector with K103N/Y181C double mutant HIV-1 RT; assay: single-round infectivity assay, luciferase reporter, K103N/Y181C RT vector; format: cell-based; settings: for EC50: Human immunodeficiency virus 1, broader panel, SD in parentheses; for fold resistance / loss of potency against K103N/Y181C double mutant: relative to WT
Description: as §2, §3, §4

[4] = system: viral vector with V106A mutant HIV-1 RT; assay: single-round infectivity assay, luciferase reporter, V106A RT vector; format: cell-based; settings: Human immunodeficiency virus 1; broader panel, SD in parentheses
Description: as §2, §3, §4

[5] = system: viral vector with Y181C mutant HIV-1 RT; assay: single-round infectivity assay, luciferase reporter, Y181C RT vector; format: cell-based; settings: Human immunodeficiency virus 1; HOS cells, reduction of luciferase reporter activity, SD in parentheses
Description: as §2, §3, §4

[6] = system: viral vector with Y188L mutant HIV-1 RT; assay: single-round infectivity assay, luciferase reporter, Y188L RT vector; format: cell-based; settings: Human immunodeficiency virus 1; HOS cells, reduction of luciferase reporter activity, SD in parentheses
Description: as §2, §3, §4

[7] = system: viral vector with E138K mutant HIV-1 RT; assay: single-round infectivity assay, luciferase reporter, E138K RT vector; format: cell-based; settings: for EC50: Human immunodeficiency virus 1, HOS cells, reduction of luciferase reporter activity, SD in parentheses
Description: as §2, §3, §4

[8] = system: viral vectors that replicate using WT HIV reverse transcriptase; assay: single-round infectivity assay, luciferase reporter, vector with WT RT; format: cell-based, HIV-1; settings: SD in parentheses
Description: as §2, §3, §4

[9] = system: viral vector with L100I mutant HIV-1 RT; assay: single-round infectivity assay, luciferase reporter, L100I RT vector; format: cell-based; settings: Human immunodeficiency virus 1; broader panel, SD in parentheses
Description: as §2, §3, §4

[10] = system: viral vector with K103N mutant HIV-1 RT; assay: single-round infectivity assay, luciferase reporter, K103N RT vector; format: cell-based; settings: Human immunodeficiency virus 1; HOS cells, reduction of luciferase reporter activity, SD in parentheses
Description: as §2, §3, §4

[11] = Human immunodeficiency virus 1, broader panel table, read-out: EC50 WT (Table S1)

Compound: Cc1cc(/C=C/C#N)cc(C)c1Nc1ccnc(Nc2ccc(C#N)cc2)n1 [Analogue 1, rilpivirine]
- CC50 at 48 h [1]: 10000 ± 600 nM
- Therapeutic Index (T.I.) (HOS cells): 2.5x10^4
- EC50 [2]: 0.4 nM
- EC50 [3]: 3.1 nM
- fold resistance / loss of potency against K103N/Y181C double mutant [3]: ~ 8 fold
- EC50 [4]: 0.1 nM
- EC50 [5]: 1.3 nM
- EC50 [6]: 2.3 ± 0.2 nM
- EC50 [7]: 0.3 nM
- EC50 ([8]; HOS cells, reduction of luciferase reporter activity, read-out: EC50 WT): 0.2 nM
- EC50 ([8]; Human immunodeficiency virus 1, HOS, HOS cells, reduction of luciferase reporter activity, read-out: EC50 WT): 0.4 ± 0.02 nM
- EC50 [9]: < 0.1 nM
- EC50 [10]: 0.2 nM

Compound: Cc1cc(/C=C/C#N)cc(C)c1Nc1nc(Nc2ccc(C#N)cc2)c2nc[nH]c2n1 [Analogue 13]
- CC50 at 48 h [1]: 15000 nM
- Therapeutic Index (T.I.) (HOS cells): 1.7x10^4
- EC50 [2]: 1.3 nM
- EC50 [3]: 2.9 nM
- EC50 [4]: 0.5 nM
- EC50 [5]: 1.4 nM
- EC50 [6]: 2 nM
- EC50 [7]: 4.2 ± 0.3 nM
- loss of potency against E138K ([7]; compared with rilpivirine (1)): four- to fourteen-fold
- EC50 [8, 11]: 0.9 nM
- EC50 [9]: 0.1 nM
- EC50 [10]: 0.4 nM

Compound: Cc1cc(/C=C/C#N)cc(C)c1Nc1ncc2ncn(-c3ccc(C#N)cc3)c2n1 [Analogue 26]
- CC50 at 48 h [1]: 21000 nM
- Therapeutic Index (T.I.) (HOS cells): 4.7x10^3
- EC50 [2]: 17 nM
- EC50 [3]: > 100 nM
- EC50 [4]: 6.5 nM
- EC50 [5]: 26 nM
- EC50 [6]: 91 nM
- EC50 [7]: 25 nM
- EC50 [8, 11]: 4.5 nM
- EC50 [9]: 1.6 nM
- EC50 [10]: 6.5 nM

Compound: Cc1cc(/C=C/C#N)cc(C)c1Nc1nc(Nc2ccc3scnc3c2)c2nc[nH]c2n1 [Analogue 21]
- CC50 at 48 h [1]: 38000 nM
- CC50 (HOS cells): > 38000 nM
- Therapeutic Index (T.I.) (HOS cells): 3.8x10^5
- EC50 [2]: 0.6 nM
- EC50 [3]: > 100 nM
- fold resistance / loss of potency against K103N/Y181C double mutant [3]: > 1000 fold
- EC50 [4]: 4.6 nM
- EC50 [5]: 1 nM
- EC50 [6]: 4.4 nM
- EC50 [7]: 1.5 nM
- EC50 [8, 11]: 0.1 nM
- EC50 [9]: 0.6 nM
- EC50 [10]: 0.6 nM

Compound: Cc1cc(/C=C/C#N)cc(C)c1Nc1nc(Nc2ccc3ncsc3c2)c2nc[nH]c2n1 [Analogue 20]
- CC50 at 48 h [1]: 2000 nM
- Therapeutic Index (T.I.) (HOS cells): 1.0x10^4
- EC50 [2]: 1.1 nM
- EC50 [3]: 60 nM
- EC50 [4]: 2.1 nM
- EC50 [5]: 1 nM
- EC50 [6]: 19 nM
- EC50 [7]: 0.8 nM
- EC50 [8, 11]: 0.2 nM
- EC50 [9]: 0.2 nM
- EC50 [10]: 0.1 nM

Compound: Cc1cc(/C=C/C#N)cc(C)c1-n1cnc2cnc(Nc3ccc(C#N)cc3)nc21 [Analogue 27]
- CC50 at 48 h [1]: 42000 nM
- CC50 (HOS cells): > 38000 nM
- Therapeutic Index (T.I.) (HOS cells): 2.1x10^5
- EC50 [2]: 0.4 nM
- EC50 [3]: 72 nM
- EC50 [4]: 0.2 nM
- EC50 [5]: 1.5 nM
- EC50 [6]: 9.6 ± 2.2 nM
- EC50 [7]: 0.7 nM
- EC50 [8, 11]: 0.2 nM
- EC50 [9]: 0.2 nM
- EC50 [10]: 0.4 nM

Source: PMC3549755, “A comparison of the ability of rilpivirine (TMC278) and selected analogues to inhibit clinically relevant HIV-1 reverse transcriptase mutants” (Retrovirology, 2012)
